Experimental data taken from patent US10344019B2 (priority 2010, dated 2019).
pEC50: −log10 of the molar value. Like-named read-outs stand apart in the source and are kept apart here.

Key:
Format in all cases: cell-based
[1] = tested on: HCV 2a Rluc cells (NS5A chimeric genotype 2a JFH-1 replicon with genotype 2a J6 strain NS5A gene, M31 present); experiment: HCV replicon reporter assay, genotype 2a J6 (M31 present); conditions: Hepatitis C virus, read-out: 2a J6
Method in brief: (§1)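 Replicons used: genotype 1b Con1, 1a H77, 2a JFH-1, and a 2a JFH-1 chimera with J6-strain NS5A (M31 present), all dicistronic.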

[2] = tested on: HCV 2a JFH-1 Rluc cells (dicistronic genotype 2a JFH-1 replicon, RLuc reporter); experiment: microbe, parasite or virus in culture; conditions: Hepatitis C virus, read-out: 2a JFH
Method in brief: as §1

[3] = tested on: HCV 2b Rluc cells (NS5A chimeric genotype 2a JFH-1 replicon with genotype 2b MD2b-1 NS5A gene, M31 present); experiment: microbe, parasite or virus in culture; conditions: Hepatitis C virus, read-out: 2b
Method in brief: (§2)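 Replicon cells stably carrying the listed RLuc-encoding dicistronic replicons were seeded and treated with DMSO serial dilutions of compound (10 mM stocks) diluted into culture medium. After 72 h, cells were lysed and Renilla luciferase activity measured. EC50 was derived by non-linear regression.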

[4] = tested on: HCV 3a RLuc cells (NS5A chimeric genotype 1b Con1 replicon with consensus genotype 3a NS5A gene); experiment: microbe, parasite or virus in culture; conditions: Hepatitis C virus
Method in brief: as §2

[5] = tested on: HCV 1a RLuc cells (dicistronic genotype 1a H77 replicon, RLuc reporter); experiment: microbe, parasite or virus in culture; conditions: Hepatitis C virus, read-out: 1a
Method in brief: as §1

[6] = tested on: HCV 1b RLuc cells (dicistronic genotype 1b Con1 replicon, RLuc reporter); experiment: microbe, parasite or virus in culture; conditions: Hepatitis C virus, read-out: 1b (nM)
Method in brief: as §1

[7] = tested on: HCV 4a Rluc cells (NS5A chimeric genotype 1b Con1 replicon with genotype 4a NS5A gene); experiment: microbe, parasite or virus in culture; conditions: Hepatitis C virus, read-out: 4a
Method in brief: as §2

[8] = read-out: 3a, genotype 3a replicon
[9] = genotype 2a JFH-1 replicon, RLuc reporter
[10] = read-out: 3a, genotype 3a NS5A chimeric 1b Con1 replicon
[11] = genotype 1a H77 replicon, RLuc reporter
[12] = genotype 2a JFH-1 RLuc replicon
[13] = read-out: 3a, genotype 3a NS5A chimeric replicon
[14] = 72 h, Table 1, genotype 2a JFH-1 replicon, 72 hours
[15] = read-out: 3a, Table 1, genotype 3a NS5A chimeric replicon
[16] = 72 h, Table 1, genotype 1a H77 replicon, 72 hours

COC(=O)N[C@H](C(=O)N1CC2(C[C@H]1c1nc3c([nH]1)-c1ccc(-c4ccc5c(ccc6nc([C@@H]7CCCN7C(=O)[C@H](NC(=O)OC)c7ccccc7)[nH]c65)c4)cc1CC3)OCCO2)C(C)C [Example 355]
pEC50 [1]: 7.36 to 9.00
pEC50 ([2]; genotype 2a JFH-1 replicon): 9.00 to 12.00
pEC50 [3]: 7.36 to 9.00
pEC50 [4, 8]: 9.00 to 12.00
pEC50 ([5]; genotype 1a replicon): 9.00 to 12.00
EC50 [6]: 0.095 nM
pEC50 [7]: 9.00 to 12.00

COC(=O)N[C@H](C(=O)N1CC2(CC2)C[C@H]1c1nc2ccc3cc(-c4ccc(-c5cnc([C@@H]6[C@H]7CC[C@H](C7)N6C(=O)[C@@H](NC(=O)OC)C(C)C)[nH]5)cc4)ccc3c2[nH]1)C(C)C [Example 387]
pEC50 [1]: < 7.36
pEC50 ([2]; genotype 2a JFH-1 replicon): 9.00 to 12.00
pEC50 [3]: < 7.36
pEC50 [4, 8]: 9.00 to 12.00
pEC50 ([5]; genotype 1a replicon): 9.00 to 12.00
EC50 [6]: 0.009 nM
pEC50 [7]: 9.00 to 12.00

COC(=O)N[C@@H](C(=O)N1C[C@@H](OC)C[C@H]1c1ncc(-c2ccc(-c3ccc4cc(-c5cnc([C@@H]6CCCN6C(=O)[C@H](C(C)C)N(C)C(=O)OC)[nH]5)ccc4c3)cc2)[nH]1)c1ccccc1 [Example 122]
pEC50 [1]: < 7.36
pEC50 [2, 9]: 9.00 to 12.00
pEC50 [3]: < 7.36
pEC50 [4, 10]: 9.00 to 12.00
pEC50 [5, 11]: 9.00 to 12.00
EC50 [6]: 0.009 nM
pEC50 [7]: 9.00 to 12.00

COC(=O)N[C@H](C(=O)N1CCC[C@H]1c1nc2c([nH]1)-c1cc3c(cc1CC2)-c1ccc(-c2cnc([C@@H]4CCCN4C(=O)[C@H](NC(=O)C4CC4)c4ccccc4)[nH]2)cc1CO3)C(C)C [Example 494]
pEC50 [1]: 9.00 to 12.00
pEC50 [2, 12]: 9.00 to 12.00
pEC50 [3]: 9.00 to 12.00
pEC50 [4, 13]: 9.00 to 12.00
pEC50 ([5]; genotype 1a H77 RLuc replicon): 9.00 to 12.00
EC50 [6]: 0.021 nM
pEC50 [7]: 9.00 to 12.00

COC(=O)N[C@H](C(=O)N1C[C@@H](OC)C[C@H]1c1ncc(-c2ccc(-c3ccc4cc(-c5cnc([C@@H]6CCCN6C(=O)[C@H](NC(=O)OC)c6ccccc6)[nH]5)ccc4c3)cc2)[nH]1)C(C)C [Example 123]
pEC50 [1]: < 7.36
pEC50 [2, 9]: 9.00 to 12.00
pEC50 [3]: < 7.36
pEC50 [4, 10]: 9.00 to 12.00
pEC50 [5, 11]: 9.00 to 12.00
EC50 [6]: 0.014 nM
pEC50 [7]: 9.00 to 12.00

COC[C@H]1C[C@@H](c2nc3ccc4cc5c(cc4c3[nH]2)OCc2cc(-c3cnc([C@@H]4CCCN4C(=O)[C@H](NC(=O)C4CC4)c4ccccc4)[nH]3)ccc2-5)N(C(=O)[C@@H](NC(=O)OC)C(C)C)C1 [Example 510]
pEC50 [1]: 9.00 to 12.00
pEC50 [2, 12]: 9.00 to 12.00
pEC50 [3]: 9.00 to 12.00
pEC50 [4, 13]: 9.00 to 12.00
pEC50 ([5]; genotype 1a H77 RLuc replicon): 9.00 to 12.00
EC50 [6]: 0.05 nM
pEC50 [7]: 9.00 to 12.00

COC(=O)N[C@H](C(=O)N1CCC[C@H]1c1ncc(-c2ccc3c(c2)COc2cc4c(cc2-3)CCc2nc([C@@H]3CCCN3C(=O)[C@H](NC(=O)C3CC3)c3ccccc3)[nH]c2-4)[nH]1)C(C)C [Example 503]
pEC50 [1]: 9.00 to 12.00
pEC50 [2, 12]: 9.00 to 12.00
pEC50 [3]: 9.00 to 12.00
pEC50 [4, 13]: 9.00 to 12.00
pEC50 ([5]; genotype 1a H77 RLuc replicon): 9.00 to 12.00
EC50 [6]: 0.041 nM
pEC50 [7]: 9.00 to 12.00

CC(C)[C@H](NC(=O)OC(C)(C)C)C(=O)N[C@@H](C(=O)N1CCC[C@H]1c1ncc(-c2cc3c4c(c2)OCc2cc(-c5cnc([C@@H]6CCCN6C(=O)[C@H](NC(=O)[C@@H](NC(=O)OC(C)(C)C)C(C)C)c6ccccc6)[nH]5)cc(c2-4)OC3)[nH]1)c1ccccc1 [Example 485]
pEC50 [1]: < 7.36
pEC50 ([2]; genotype 2a JFH-1 replicon): 9.00 to 12.00
pEC50 [3]: < 7.36
pEC50 [4, 8]: 9.00 to 12.00
pEC50 ([5]; genotype 1a replicon): 7.36 to 9.00
EC50 [6]: 0.17 nM
pEC50 [7]: 9.00 to 12.00

COC(=O)N[C@H](C(=O)N1CCC[C@H]1c1ncc(-c2cc3c4c(c2)OCc2cc(-c5cnc([C@@H]6CCCN6C(=O)[C@H](NC(=O)OC)c6ccccc6)[nH]5)cc(c2-4)OC3)[nH]1)C1CCOCC1 [Example 364]
pEC50 [1]: 9.00 to 12.00
pEC50 ([2]; genotype 2a JFH-1 replicon): 9.00 to 12.00
pEC50 [3]: 9.00 to 12.00
pEC50 [4, 8]: 9.00 to 12.00
pEC50 ([5]; genotype 1a replicon): 9.00 to 12.00
EC50 [6]: 0.335 nM
pEC50 [7]: 9.00 to 12.00

O=C(N[C@@H](C(=O)N1CCC[C@H]1c1ncc(-c2cc3c4c(c2)OCc2cc(-c5cnc([C@@H]6CCCN6C(=O)[C@H](NC(=O)c6cccnc6)c6ccccc6)[nH]5)cc(c2-4)OC3)[nH]1)c1ccccc1)c1cccnc1 [Example 469]
pEC50 [1]: 9.00 to 12.00
pEC50 ([2]; genotype 2a JFH-1 replicon): 9.00 to 12.00
pEC50 [3]: 9.00 to 12.00
pEC50 [4, 8]: 9.00 to 12.00
pEC50 ([5]; genotype 1a replicon): 9.00 to 12.00
EC50 [6]: 0.752 nM
pEC50 [7]: 9.00 to 12.00

COC[C@H]1C[C@@H](c2ncc(-c3ccc(-c4ccc5c(ccc6nc([C@@H]7C[C@H](COC)CN7C(=O)[C@@H](NC(=O)OC)C(C)C)[nH]c65)c4)cc3)[nH]2)N(C(=O)[C@@H](NC(=O)OC)C(C)C)C1 [Example 440]
pEC50 [1]: 9.00 to 12.00
pEC50 ([2]; genotype 2a JFH-1 replicon): 9.00 to 12.00
pEC50 [3]: 7.36 to 9.00
pEC50 [4, 8]: 8.30 to 9.00
pEC50 ([5]; genotype 1a replicon): 9.00 to 12.00
EC50 [6]: 0.048 nM
pEC50 [7]: 9.00 to 12.00

COC(=O)N[C@H](C(=O)N1CCC[C@H]1c1ncc(-c2ccc3c4c(ccc3c2)-c2ccc(-c3cnc([C@@H]5CCCN5C(=O)[C@H](NC(=O)OC)c5ccccc5)[nH]3)cc2CO4)[nH]1)C1CCOCC1 [Example 13]
pEC50 [1]: 7.36 to 9.00
pEC50 [2, 14]: 9.00 to 12.00
pEC50 [3]: 9.00 to 12.00
pEC50 [4, 15]: 9.00 to 12.00
pEC50 [5, 16]: 9.00 to 12.00
EC50 ([6]; 72 h): 0.015 nM
pEC50 [7]: 9.00 to 12.00

CC(C)OC(=O)N[C@@H](C(=O)N1CCC[C@H]1c1ncc(-c2cc3c4c(c2)OCc2cc(-c5cnc([C@@H]6CCCN6C(=O)[C@H](NC(=O)OC(C)C)c6ccccc6)[nH]5)cc(c2-4)OC3)[nH]1)c1ccccc1 [Example 488]
pEC50 [1]: 7.36 to 9.00
pEC50 [2, 12]: 9.00 to 12.00
pEC50 [3]: 9.00 to 12.00
pEC50 [4, 13]: 9.00 to 12.00
pEC50 ([5]; genotype 1a H77 RLuc replicon): 9.00 to 12.00
EC50 [6]: 0.03 nM
pEC50 [7]: 9.00 to 12.00

COC(=O)N[C@H](C(=O)N1CCC[C@H]1c1nc2ccc3cc(-c4ccc(-c5[nH]c([C@@H]6[C@H]7CC[C@H](C7)N6C(=O)[C@@H](NC(=O)OC)C(C)C)nc5Cl)cc4)ccc3c2[nH]1)C(C)C [Example 388]
pEC50 [1]: < 7.36
pEC50 ([2]; genotype 2a JFH-1 replicon): 9.00 to 12.00
pEC50 [3]: < 7.36
pEC50 [4, 8]: 9.00 to 12.00
pEC50 ([5]; genotype 1a replicon): 9.00 to 12.00
EC50 [6]: 0.008 nM
pEC50 [7]: 9.00 to 12.00

CC#Cc1cc(-c2cnc([C@@H]3CCCN3C(=O)[C@H](NC(=O)OC)c3ccccc3)[nH]2)ccc1-c1ccc2c(ccc3nc([C@@H]4CCCN4C(=O)[C@@H](NC(=O)OC)C(C)C)[nH]c32)c1 [Example 374]
pEC50 [1]: 9.00 to 12.00
pEC50 ([2]; genotype 2a JFH-1 replicon): 9.00 to 12.00
pEC50 [3]: 7.36 to 9.00
pEC50 [4, 8]: 9.00 to 12.00
pEC50 ([5]; genotype 1a replicon): 9.00 to 12.00
EC50 [6]: 0.019 nM
pEC50 [7]: 9.00 to 12.00

CCC(=O)N[C@@H](C(=O)N1CCC[C@H]1c1ncc(-c2ccc3c(c2)COc2cc4c(ccc5nc([C@@H]6CCCN6C(=O)[C@@H](NC(=O)OC)C(C)C)[nH]c54)cc2-3)[nH]1)c1ccccc1 [Example 499]
pEC50 [1]: 9.00 to 12.00
pEC50 [2, 12]: 9.00 to 12.00
pEC50 [3]: 9.00 to 12.00
pEC50 [4, 13]: 9.00 to 12.00
pEC50 ([5]; genotype 1a H77 RLuc replicon): 9.00 to 12.00
EC50 [6]: 0.032 nM
pEC50 [7]: 9.00 to 12.00

COC(=O)N[C@H](C(=O)N1CCC[C@H]1c1ncc(-c2cc3c4c(c2)C(=O)c2cc(-c5cnc([C@@H]6CCCN6C(=O)[C@@H](NC(=O)OC)C(C)C)[nH]5)cc(c2-4)OC3)[nH]1)C(C)C [Example 24]
pEC50 [1]: < 7.36
pEC50 [2, 14]: 9.00 to 12.00
pEC50 [3]: < 7.36
pEC50 [4, 15]: 9.00 to 12.00
pEC50 [5, 16]: 9.00 to 12.00
EC50 ([6]; 72 h): 0.013 nM
pEC50 [7]: 9.00 to 12.00

COC(=O)N[C@H](C(=O)N1C[C@@H](C)C[C@H]1c1ncc(-c2cc3c4c(c2)OCc2cc(-c5cnc([C@@H]6C[C@H](C)CN6C(=O)[C@H](NC(=O)OC)c6ccccc6)[nH]5)cc(c2-4)OC3)[nH]1)C(C)C [Example 564]
pEC50 [1]: 7.36 to 9.00
pEC50 [2, 12]: 9.00 to 12.00
pEC50 [3]: 9.00 to 12.00
pEC50 [4, 13]: 9.00 to 12.00
pEC50 ([5]; genotype 1a H77 RLuc replicon): 9.00 to 12.00
EC50 [6]: 0.012 nM
pEC50 [7]: 9.00 to 12.00
